What was measured:
CF1 mouse = assay: Formalin-induced nociception model in mice (hyperalgesia and inflammation); format: in vivo; details: 45.0 mg/kg p.o., n=8/group; for Drug-treated AUC (duration of licking): formalin 1 hour after dosing
Protocol: An injection of 0.5% formalin is made into the planter region of a CF1 mouse (obtained from Charles River, Inc.) right hind paw. This elicits a distinct biphasic behavioral profile characterized by the mouse licking the affected paw. Immediately following the injection the mouse licks the paw for about 10 minutes. This is phase 1 (acute) and is followed by a brief latent period where there is little behavioral activity. A more prolonged period of about 20 to 30 minutes of paw licking ensues which constitutes phase 2 (inflammatory).
Prior to the administration of the test drug or vehicle each mouse undergoes a 15-minute conditioning period in one of several 6″ tall plexiglass observation tubes (4″ diameter) that are placed in front of a mirror. Following the conditioning period, doses of tonabersat will be administered p.o. and the mouse returned to its home tube. At a time determined to correlate with peak plasma levels (1 hour), formalin will be injected sub-dermally (20 ul; 27 gauge needle) into the plantar surface of the right hind foot. The bevel of the needle is placed facing down toward the skin surface. Following injection of the formalin each animal is observed for the first 2 minutes of each 5 minute epoch for a total of 45 minutes. The cumulative length of licking for each 2 minute time period is measured. An animal receiving the requisite volume of vehicle is alternated with each mouse given the test drug. Animals are euthanized following the conclusion of the experiment. An n of 8 mice per group will be employed in this study.
Area under the curve (AUC) determination is made using the GraphPad Prism Version 3.03. Total AUC is calculated for both the test and control groups for both the acute and inflammatory phases. The AUC for individual animals for each phase is also calculated and converted to percentage of total AUC of control. The average percentages and SEM for both the drug treated and control are calculated and tested for significant difference.

Sprague-Dawley rats [1] = assay: Chronic sciatic nerve ligation model in rats (mechanical allodynia, Von Frey); format: in vivo, rat; details: 30.0 mg/kg p.o., n=8/group
Source text: Following a 10-day post-operative period after partial ligation of the sciatic nerve as described by Seltzer et al, each of the operated Sprague-Dawley rats (obtained from Charles River, Inc.) will be tested for the development of consistent, mechanical allodynia (pain response to a non-noxious stimulus). Animals are placed in a bottomless plexiglass box placed on a stainless steel platform with ¼″ holes. After at least a 30-min conditioning period in which rats are allowed to sit quietly in the cages on the platform, a baseline mechanical sensitivity is determined which represents the pre-drug 50% paw withdrawal threshold. […] The 50% threshold for foot withdrawal is determined by using the “Up and Down” step procedure. […] If the pressure of the largest diameter fiber raises the foot without a withdrawal, it is considered as “no response.” and recorded as >300 g on the data sheet.
Following the measurement of the initial predrug responses, the rats will be given an p.o. injection of tonabersat (n=8 rats per dose level). The mechanical threshold will then be assessed at 1, 2, 4, 6, 8, and 24 hrs post-injection to determine the duration of action of the test compound and the TPE in this model of mechanical allodynia. […]
The withdrawal threshold for each animal determined at each time point is computed using the “xoxox” step procedure originally developed by Dixon (1980). […]

Sprague-Dawley rats [2] = details: general statement, no dose given; cited from earlier work

| Compound | Drug-treated AUC (duration of licking) (CF1 mouse; Acute Phase, Control AUC 185.8) | % Inhibition of Control (CF1 mouse; Acute Phase, p = >0.05) [%] | Drug-treated AUC (duration of licking) (CF1 mouse; Inflammatory Phase, Control AUC 446.7) | % Inhibition of Control (CF1 mouse; Inflammatory Phase, p = <0.05) [%] | % Control (threshold for foot withdrawal relative to predrug mean) (Sprague-Dawley rats [1]; at time of peak effect 6.0 h, p = <0.05) [%] | Time of peak effect (Sprague-Dawley rats [1]; threshold for foot withdrawal) [h] | Activity in sciatic nerve ligation model (Sprague-Dawley rats [2]) |
| --- | --- | --- | --- | --- | --- | --- | --- |
| CC(=O)c1ccc2c(c1)[C@H](NC(=O)c1ccc(F)c(Cl)c1)[C@H](O)C(C)(C)O2 [Tonabersat, cis-6-acetyl-4-(S)-(3-chloro-4-fluorobenzoylamino)-3,4-dihydro-2,2-dimethyl-2H-1-benzopyran-3-(S)-ol] | 116.4 | 37.3 | 135.8 | 69.6 | 237.0 | 6.0 |  |
| NCC1(CC(=O)O)CCCCC1 [gabapentin] |  |  |  |  |  |  | active |
| CC(C)C[C@H](CN)CC(=O)O [pregabalin] |  |  |  |  |  |  | active |

— patent US20130018091A1, “TREATMENT OF ALLODYNIA AND HYPERALGESIA” (priority 2009, published 2013)
